Results on 20 compounds are retold here after patent US20240182454A1, “Polycyclic Compound for Inhibiting RNA Helicase DHX33, and Application of Compound” (Shenzhen KeYe Life Technologies, Co., Ltd, priority 2021, published 2024).

One assay has as its system U251-MG cells. The assay can be described thus: Half-maximal cell-inhibitory concentration on U251-MG cells (CCK-8). Format: cell-based. The following applies: Homo sapiens, U-251, U251-MG cells (DHX33-overexpressing), 48 hours incubation, read-out: IC50, half-maximal inhibitory concentrations of compounds on U251-MG cell. The method, then:
U251-MG cells were purchased from the cell bank of the Chinese Academy of Sciences. Cells were cultured in MEM medium containing 10% fetal bovine serum (FBS), 2 mM L-glutamine, streptomycin and penicillin. The growth conditions were set as follows: a humidified cell incubator (37° C., 5% CO2). Cells were passaged every 3 days and were discarded after 10 passages.
U251-MG cells (a DHX33-overexpressing cancer cell strain) were seeded on a 96-well plate at 1×10^4 cells/100 μl/well. After the cells were completely attached, the compounds were added to the cell culture medium at a concentration of 5 nM, 10 nM, 25 nM, 50 nM, 100 nM, 250 nM, 500 nM, 1000 nM, 2000 nM, 5000 nM, 10 μM or 20 μM, and the resulting mixture was uniformly mixed with a multichannel pipette. After the cells were incubated with the compound for 48 hours, CCK-8 reagent (Yeasen Biotechnology (Shanghai) Co., Ltd.) was added to the medium in the 96-well plate in accordance with the standard procedure. After being incubated for 2 hours, the plate was read with a microplate reader (OD=450 nm). The experiment was repeated three times, the inhibiton curve of the compound at different concentrations was plotted, and the half-maximal inhibitory concentration (IC50) of the compound was calculated.
Turning to `COc1ccc2nc(NC(=O)c3cc(C)n(-c4oc(C)nc4C#N)c3C)[nH]c2c1` [AB29522], the IC50 lay within 100 to 1000 nM.
Same read-out and setting: to `COc1ccc2nc(C(=O)Nc3cc(C)n(-c4sc(C)cc4C#N)c3C)[nH]c2c1` [AB29540] belongs 100 to 1000 nM; to `COc1ccc2nc(NC(=O)c3cc(C)n(Cc4cccs4)c3C)[nH]c2c1` [AB29552], 1000 to 5000 nM.
The same measure, in the same setting: the result for `Cc1cc(C#N)c(-n2c(C)cc(C(=O)Nc3nc4ccccc4[nH]3)c2C)s1` [AB29553] reads 100 to 1000 nM.
With `Cc1cc(C#N)c(-n2c(C)cc(C(=O)Nc3nc4cccnc4[nH]3)c2C)s1` [AB29554], the IC50 lay in the range of 1000 to 5000 nM.
On the same count and under the same terms, to `Cc1cc(C#N)c(-n2c(C)cc(C(=O)Nc3nc4ccncc4[nH]3)c2C)s1` [AB29555] belongs 1000 to 5000 nM.
The same measure, in the same setting: to `Cc1cc(C#N)c(-n2c(C)cc(C(=O)Nc3nc4ccc(F)cc4[nH]3)c2C)s1` [AB29556] belongs 100 to 1000 nM; to `Cc1cc(C#N)c(-n2c(C)cc(C(=O)Nc3nc4ccc(Cl)cc4[nH]3)c2C)s1` [AB29557], 100 to 1000 nM; to `COc1cc2[nH]c(NC(=O)c3cc(C)n(-c4sc(C)cc4C#N)c3C)nc2cn1` [AB29558], less than 100 nM.
The same measure, in the same setting: to `COc1cccc2nc(NC(=O)c3cc(C)n(-c4sc(C)cc4C#N)c3C)[nH]c12` [AB29559] belongs 1000 to 5000 nM; to `COc1ccc2nc(N(C)C(=O)c3cc(C)n(-c4sc(C)cc4C#N)c3C)[nH]c2c1` [AB29560], 100 to 1000 nM; to `COc1ccc2nc(NC(=O)c3cc(C)n(-c4sc(C)cc4C#N)c3C)n(C)c2c1` [AB29561], 100 to 1000 nM.
`COCn1c(NC(=O)c2cc(C)n(-c3sc(C)cc3C#N)c2C)nc2ccc(OC)cc21` [AB29562]: the IC50 lay within 100 to 1000 nM.
On the same count and under the same terms, the result for `COCn1c(NC(=O)c2cc(C)n(-c3sc(C)cc3C#N)c2C)nc2cc(OC)ccc21` [AB29563] reads 100 to 1000 nM; that for `COc1ccc2nc(NC(=O)c3cc(C)n(-c4sc(C)cc4C#N)c3C)n(COC(=O)C(C)(C)C)c2c1` [AB29564], 1000 to 5000 nM.
Consider `COc1ccc2c(c1)nc(NC(=O)c1cc(C)n(-c3sc(C)cc3C#N)c1C)n2COC(=O)C(C)(C)C` [AB29565], for which the IC50 was in the range of 1000 to 5000 nM.
On the same count and under the same terms, the result for `COc1cnc2nc(NC(=O)c3cc(C)n(-c4sc(C)cc4C#N)c3C)[nH]c2c1` [AB29566] reads less than 100 nM.
On the same count and under the same terms, the result for `Cc1cc(C#N)c(-n2c(C)cc(C(=O)Nc3nc4ccc(OC(F)(F)F)cc4[nH]3)c2C)s1` [AB29572] reads 1000 to 5000 nM; that for `COc1cc2cc(NC(=O)c3cc(C)n(-c4sc(C)cc4C#N)c3C)[nH]c2cn1` [AB29573], 100 to 1000 nM.

The next assay deals with T1, DHX33 protein (Mus musculus, UniProt Q80VY9).
T1 construct: 0.25 μg of purified full-length DHX33 protein; made in house; host or cells: E. coli BL-21pLysS (DE3)
T1 sequence (Q80VY9 1-698): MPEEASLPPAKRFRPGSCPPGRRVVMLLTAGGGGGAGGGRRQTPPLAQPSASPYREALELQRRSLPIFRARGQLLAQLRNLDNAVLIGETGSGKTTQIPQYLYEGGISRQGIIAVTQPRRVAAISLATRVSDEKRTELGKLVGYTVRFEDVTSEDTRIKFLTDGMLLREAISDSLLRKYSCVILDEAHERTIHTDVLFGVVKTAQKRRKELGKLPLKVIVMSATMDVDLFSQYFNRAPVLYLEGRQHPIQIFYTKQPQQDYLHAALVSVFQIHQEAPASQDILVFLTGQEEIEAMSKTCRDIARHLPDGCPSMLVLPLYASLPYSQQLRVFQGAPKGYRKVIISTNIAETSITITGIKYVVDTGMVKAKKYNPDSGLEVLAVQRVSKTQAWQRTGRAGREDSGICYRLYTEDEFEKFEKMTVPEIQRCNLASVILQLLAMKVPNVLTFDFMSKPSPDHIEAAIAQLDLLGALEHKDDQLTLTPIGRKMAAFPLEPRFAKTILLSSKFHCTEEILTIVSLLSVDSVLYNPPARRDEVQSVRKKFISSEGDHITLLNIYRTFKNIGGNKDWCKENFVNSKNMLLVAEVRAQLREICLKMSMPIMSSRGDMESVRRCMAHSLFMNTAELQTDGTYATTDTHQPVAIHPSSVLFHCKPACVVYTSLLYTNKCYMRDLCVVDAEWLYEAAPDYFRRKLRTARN
The assay can be described thus: Inhibition of the helicase activity of DHX33 protein in vitro. Format: biochemical. To be noted: recombinant DHX33 protein, compound 1-1000 nM, 37° C. 60 minutes; read-out: IC50, inhibitory effects of the compounds on the helicase activity of DHX33 protein. The method, then:
Biochemistry. 2019;58 (4):250-8. RNA helicase gene (mouse DHX33 gene) was cloned into a pET32M-3C vector (between BamH I/Not I restriction sites). Afterward, the plasmid was transformed into BL-21pLysS (DE3) E. coli. 0.5 mM isopropyl 1-thio-P-D-galactopyranoside (IPTG) was added, and the expression of the recombinant protein was induced at 16° C. for 16 hours. Cells were allowed to precipitate and were resuspended in a cell lysis buffer [50 mM Tris-HCl (pH7.2), 150 mM NaCl, 1% Triton X-100, and 50 mM imidazole supplemented with a protease inhibitor]. Thereafter, cells were subjected to ultrasonic treatment and centrifuged at a rotation speed of 13000 rpm for 25 minutes. The supernatant was incubated with the nickel-nitrilotriacetic acid beads equilibrated in Tris buffer, followed by sufficient washing. Thereafter, the purified protein was eluted with a solution of 300 mM imidazole in Tris buffer, and was then subjected to dialysis against an imidazole-free Tris buffer at 4° C. overnight.
The components involved in the reaction for testing the helicase activity were added to a 96-well opaque white plate. The method was outlined as follows. The 96-well plate was coated with neutravidin at a final concentration of 10 μg/mL (100 μL/well) overnight at 4° C. Afterwards, the neutravidin-coated plate was blocked with 100 μL of 0.1% (w/v) BSA (dissolved in normal PBS) at 22° C. for 2 hours. After washing, a DNA duplex (2.5 ng) that was resulted from the annealing of two single-stranded DNA oligonucleotides (the sequence of one single strand was biotin-labeled 5′-[…]-3; and the sequence of the other single strand was DIG-labeled 5′-[…]-3′) [the annealing reaction was carried out in PBS (pH 7.0) containing 1M NaCl] was added, and the resulting mixture was incubated at 22° C. for 4 hours. After the addition of 90 μL of the reaction mixture, the helicase reaction was initiated [0.25 μg of purified full-length DHX33 protein, dissolved in 25 mM 4-MOPS (pH 7.0), 5 mM ATP, 2 mM DTT, 3 mM MnCl2 and 100 μg/mL BSA]. The reaction was conducted at 37° C. for 60 minutes. After being washed, each well was incubated with a blocking solution [10% (w/v) BSA in 0.1 M maleic acid and 0.15 M NaCl (pH 7.5)] for 30 minutes, and was then incubated with 20 μL of antibody solution (anti-DIG-AP, Roche, in blocking buffer) for 30 minutes. After being washed with 100 μL of detection buffer [0.1 M Tris-HCl and 0.1 M NaCl (pH 9.5)], each well was added with 1 μL of chemiluminescent substrate (CSPD-0.25 mM), and the plate was incubated at 17° C. for 5 minutes. […] The remaining DIG-AP marker control in each well was counted for 10 minutes by a luminescence multi-well plate reader (Enspire, PerkinElmer). Higher reading indicated weaker helicase activity. […]
Consider `Cc1cc(C#N)c(-n2c(C)cc(C(=O)Nc3nc4ccc(F)cc4[nH]3)c2C)s1` [AB29556], for which the IC50 lay in the range of 20 to 100 nM.
The same measure, in the same setting: to `COc1cc2[nH]c(NC(=O)c3cc(C)n(-c4sc(C)cc4C#N)c3C)nc2cn1` [AB29558] belongs less than 20 nM; to `COc1cccc2nc(NC(=O)c3cc(C)n(-c4sc(C)cc4C#N)c3C)[nH]c12` [AB29559], not below 400 nM; to `Cc1oc(-n2c(C)cc(/C=C(\C#N)c3nc4ccccc4[nH]3)c2C)c(C#N)c1C` [Compound as control, reference compound], not below 400 nM.
